# In patent US20240076609A1, “COMPOSITIONS AND METHODS FOR CULTURING AND EXPANDING CELLS” (LIFE TECHNOLOGIES CORPORATION, priority 2017, published 2024):
# Where “and” joins values, the source holds several entries; their conditions need not be identical. Identical values can stand only once.
# Key:
# Pan CD3+ T cells [1] = assay: T cell expansion with 2-DG titration (population doublings); type: cell-based, human
# Procedure: 2-Deoxy-D-Glucose Preparation: 2-Deoxy-D-Glucose (2-DG, 164.16 g/mol) was manufactured by (Acros Organics, cat. no. 111980-250). The 2-DG solution was prepared in sterile filtered water at a stock concentration of 100 mM, then aliquoted in Eppendorf tubes at a final volume of 1 mL in each tube. Cell Culture: T cell isolation: De-identified, frozen apheresis bags from normal donors were obtained from HemaCare Corp. Van Nuys, CA 91406. T cells were negatively isolated from PBMCs with the DYNABEADS® […] Human T Cells kit (Thermo Fisher Scientific, Cat. No. 11344D). T cell activation and expansion: T cells (seeding density 1×10^6 vc/mL) were activated with DYNABEADS® Human T-Expander CD3/CD28 (Thermo Fisher Scientific, Cat. No. 11141D) at a ratio of 3 beads per T cell and cultured in serum-free medium, animal origin free medium. T cells were counted on days 5, 7, 10, and 12 on a Vi-CELL XR analyzer (Beckman Coulter, Indianapolis IN) and fed with or without 2-DG (0.25 mM, 0.5 mM, 1 mM, 2 mM, and 4 mM) and 5% human AB serum to a density of 5×10^5 vc/mL on days 3, 5, and 7 and 1×10^6 vc/mL on day 10. 2-Deoxy-D-Glucose Preparation: 2-Deoxy-D-Glucose (2-DG, 164.16 g/mol) is manufactured by Acros Organics (part of Thermo Fisher Scientific). The 2-DG solution was prepared in sterile filtered water at a stock concentration of 100 mM, then aliquoted in Eppendorf tubes at a final volume of 1 mL in each tube. Cell Culture: T cell isolation: De-identified, frozen apheresis bags from normal donors were obtained from HemaCare. T cells were negatively isolated from PBMCs with the DYNABEADS® […] Human T Cells kit (Thermo Fisher Scientific, Cat. No. 11344D). T cell activation and expansion: T cells (seeding density 1×10^6 vc/mL) were activated with DYNABEADS® Human T-Expander CD3/CD28 (Thermo Fisher Scientific, Cat. No. 11141D) at a ratio of 3 beads per T cell and cultured in serum-free medium, animal origin free medium. T cells were counted on days 5, 7, 10, and 12 on a Vi-CELL XR analyzer (Beckman Coulter, Indianapolis IN) and fed with or without 2-DG (0.25 mM, 0.5 mM, 1 mM, 2 mM, and 4 mM) and 5% human AB serum to a density of 5×10^5 vc/mL on days 3, 5, and 7 and 1×10^6 vc/mL on day 10.
# Pan CD3+ T cells [2] = assay: CD8+/CD4+ phenotype by flow cytometry after 10 days with 2-DG; type: cell-based, human; settings: for CD8+ T cell population (frequency): day 10
# Procedure: Phenotype: Primary human T cells were expanded for 10 days with and without 2-DG and 5% human AB serum. DYNABEADS® were removed from 2×10^6 cells by magnetic separation. Surface staining was performed with antibodies against CD3 (Invitrogen, Cat. No. CD0329), CD4 (Molecular Probes, Cat. No. A15858), CD8 (Invitrogen, Cat. No. MHCD0828). Flow cytometric analysis was performed on a Gallios flow cytometer and Kaluza software (Beckman Coulter, Indianapolis IN). Phenotype: Primary human T cells were expanded for 10 days with and without 2-DG and 5% human AB serum. DYNABEADS® were removed from 2×10^6 cells by magnetic separation. Surface staining was performed with antibodies against CD3 (Invitrogen, Cat. No. CD0329), CD4 (Molecular Probes, Cat. No. A15858), CD8 (Invitrogen, Cat. No. MHCD0828). Flow cytometric analysis was performed on a Gallios flow cytometer and Kaluza software (Beckman Coulter, Indianapolis IN).
# [3] = 0.25 mM 2-DG, Day 10 of culture
# [4] = 0.25 mM 2-DG, Day 10, single donors
# [5] = 0.5 mM 2-DG, Day 10, single donors
compound,measurement,setting,value
"O=CC[C@@H](O)[C@H](O)[C@H](O)CO [2-DG, 2-Deoxy-D-Glucose]",Cultured T Cell Population Doublings,"Pan CD3+ T cells [1]; 0.25 mM 2-DG, day 5, Table 12",1.79
same,Cultured T Cell Population Doublings,"Pan CD3+ T cells [1]; 0.25 mM 2-DG, day 5, single values, Table 31",1.44 and 1.64 and 1.57
same,Cultured T Cell Population Doublings,"Pan CD3+ T cells [1]; 0.25 mM 2-DG, day 7, Table 12",3.67
same,Cultured T Cell Population Doublings,"Pan CD3+ T cells [1]; 0.25 mM 2-DG, day 7, single values, Table 31",3.40 and 3.54 and 3.35
same,Cultured T Cell Population Doublings,"Pan CD3+ T cells [1]; 0.25 mM 2-DG, day 10, Table 12",6.20
same,Cultured T Cell Population Doublings,"Pan CD3+ T cells [1]; 0.25 mM 2-DG, day 10, single values, Table 31",4.85 and 5.70 and 5.81
same,Cultured T Cell Population Doublings,"Pan CD3+ T cells [1]; 0.25 mM 2-DG, day 12, Table 12",6.49
same,Cultured T Cell Population Doublings,"Pan CD3+ T cells [1]; 0.25 mM 2-DG, day 12, single values, Table 31",5.72 and 6.57 and 6.47
same,Cultured T Cell Population Doublings,"Pan CD3+ T cells [1]; 0.5 mM 2-DG, day 5, Table 12",1.81
same,Cultured T Cell Population Doublings,"Pan CD3+ T cells [1]; 0.5 mM 2-DG, day 5, single values, Table 31",1.40 and 1.69 and 1.04
same,Cultured T Cell Population Doublings,"Pan CD3+ T cells [1]; 0.5 mM 2-DG, day 7, Table 12",4.17
same,Cultured T Cell Population Doublings,"Pan CD3+ T cells [1]; 0.5 mM 2-DG, day 7, single values, Table 31",3.95 and 3.32 and 3.33
same,Cultured T Cell Population Doublings,"Pan CD3+ T cells [1]; 0.5 mM 2-DG, day 10, Table 12",6.07
same,Cultured T Cell Population Doublings,"Pan CD3+ T cells [1]; 0.5 mM 2-DG, day 10, single values, Table 31",5.06 and 6.28 and 6.75
same,Cultured T Cell Population Doublings,"Pan CD3+ T cells [1]; 0.5 mM 2-DG, day 12, Table 12",6.16
same,Cultured T Cell Population Doublings,"Pan CD3+ T cells [1]; 0.5 mM 2-DG, day 12, single values, Table 31",6.13 and 6.22 and 6.48
same,Cultured T Cell Population Doublings,"Pan CD3+ T cells [1]; 1 mM 2-DG, day 5, Table 12",1.15
same,Cultured T Cell Population Doublings,"Pan CD3+ T cells [1]; 1 mM 2-DG, day 5, Table 25",2.08
same,Cultured T Cell Population Doublings,"Pan CD3+ T cells [1]; 1 mM 2-DG, day 7, Table 12",3.40
same,Cultured T Cell Population Doublings,"Pan CD3+ T cells [1]; 1 mM 2-DG, day 7, Table 25",3.87
same,Cultured T Cell Population Doublings,"Pan CD3+ T cells [1]; 1 mM 2-DG, day 10, Table 12",4.93
same,Cultured T Cell Population Doublings,"Pan CD3+ T cells [1]; 1 mM 2-DG, day 10, Table 25",7.19
same,Cultured T Cell Population Doublings,"Pan CD3+ T cells [1]; 1 mM 2-DG, day 12, Table 12",4.60
same,Cultured T Cell Population Doublings,"Pan CD3+ T cells [1]; 1 mM 2-DG, day 12, Table 25",7.00
same,Cultured T Cell Population Doublings,"Pan CD3+ T cells [1]; 2 mM 2-DG, day 5, Table 12",0.15
same,Cultured T Cell Population Doublings,"Pan CD3+ T cells [1]; 2 mM 2-DG, day 5, Table 25",1.87
same,Cultured T Cell Population Doublings,"Pan CD3+ T cells [1]; 2 mM 2-DG, day 7, Table 12",1.33
same,Cultured T Cell Population Doublings,"Pan CD3+ T cells [1]; 2 mM 2-DG, day 7, Table 25",3.53
same,Cultured T Cell Population Doublings,"Pan CD3+ T cells [1]; 2 mM 2-DG, day 10, Table 12",3.29
same,Cultured T Cell Population Doublings,"Pan CD3+ T cells [1]; 2 mM 2-DG, day 10, Table 25",7.10
same,Cultured T Cell Population Doublings,"Pan CD3+ T cells [1]; 2 mM 2-DG, day 12, Table 12",2.44
same,Cultured T Cell Population Doublings,"Pan CD3+ T cells [1]; 2 mM 2-DG, day 12, Table 25",6.90
same,population doublings,Pan CD3+ T cells [1]; 4 mM 2-DG,about 6 population doublings
same,Cultured T Cell Population Doublings,"Pan CD3+ T cells [1]; 4 mM 2-DG, day 5, Table 12",2.24
same,Cultured T Cell Population Doublings,"Pan CD3+ T cells [1]; 4 mM 2-DG, day 5, Table 25",1.92
same,Cultured T Cell Population Doublings,"Pan CD3+ T cells [1]; 4 mM 2-DG, day 7, Table 12",3.84
same,Cultured T Cell Population Doublings,"Pan CD3+ T cells [1]; 4 mM 2-DG, day 7, Table 25",3.95
same,Cultured T Cell Population Doublings,"Pan CD3+ T cells [1]; 4 mM 2-DG, day 10, Table 12",6.78
same,Cultured T Cell Population Doublings,"Pan CD3+ T cells [1]; 4 mM 2-DG, day 10, Table 25",7.50
same,Cultured T Cell Population Doublings,"Pan CD3+ T cells [1]; 4 mM 2-DG, day 12, Table 12",6.63
same,Cultured T Cell Population Doublings,"Pan CD3+ T cells [1]; 4 mM 2-DG, day 12, Table 25",7.35
same,expansion compared to control,Pan CD3+ T cells [1]; 2-DG at 0.25 mM and 0.5 mM,expansion comparable to control
same,effect of 2-DG supplementation on T cell growth,Pan CD3+ T cells [1]; concentrations tested 0.25-4 mM,does not affect T cell growth even with lower concentrations
same,% CD4+,Pan CD3+ T cells [2]; [3],39.21% and 32.39% and 22.68%
same,% CD8+,Pan CD3+ T cells [2]; [3],53.46% and 63.2% and 70.32%
same,% Ratios (CD8+/CD4+) (Avg),"Pan CD3+ T cells [2]; 0.25 mM 2-DG, Day 10 of culture, average",2.1
same,Fold Increase compared to Baseline,"Pan CD3+ T cells [2]; 0.25 mM 2-DG, Day 10 vs Day 0 CD8+/CD4+ ratio",3.02 and 2.49 and 3.99
same,% Ratios (CD8+/CD4+) (Avg),"Pan CD3+ T cells [2]; 0.25 mM 2-DG, Day 10",2.1
same,% CD4+,Pan CD3+ T cells [2]; [4],39.21% and 32.39% and 22.68%
same,% CD8+,Pan CD3+ T cells [2]; [4],53.46% and 63.2% and 70.32%
same,% Ratios (CD8+/CD4+),Pan CD3+ T cells [2]; [4],1.36 and 1.95 and 3.10
same,Fold Increase (Avg),"Pan CD3+ T cells [2]; 0.25 mM 2-DG, Day 10 vs Day 0",3.2
same,Fold Increase in CD8+ to CD4+ ratio,"Pan CD3+ T cells [2]; 0.25 mM 2-DG, Day 10 vs Day 0, single donors",3.02 and 2.49 and 3.99
same,CD8+ T cell population (frequency),"Pan CD3+ T cells [2]; 0.25 mM and 0.5 mM 2-DG, single donor",48%
same,% CD4+,"Pan CD3+ T cells [2]; 0.5 mM 2-DG, Day 10 of culture",37.08% and 29.85% and 23.85%
same,% CD8+,"Pan CD3+ T cells [2]; 0.5 mM 2-DG, Day 10 of culture",55.04% and 66.57% and 68.64%
same,% Ratios (CD8+/CD4+),"Pan CD3+ T cells [2]; 0.5 mM 2-DG, Day 10 of culture",1.48 and 2.23 and 2.88
same,% Ratios (CD8+/CD4+) (Avg),"Pan CD3+ T cells [2]; 0.5 mM 2-DG, Day 10 of culture, average",2.2
same,Fold Increase compared to Baseline,"Pan CD3+ T cells [2]; 0.5 mM 2-DG, Day 10 vs Day 0 CD8+/CD4+ ratio",3.29 and 2.85 and 3.7
same,% Ratios (CD8+/CD4+) (Avg),"Pan CD3+ T cells [2]; 0.5 mM 2-DG, Day 10",2.2
same,% CD4+,Pan CD3+ T cells [2]; [5],37.08% and 29.85% and 23.85%
same,% CD8+,Pan CD3+ T cells [2]; [5],55.04% and 66.57% and 68.64%
same,% Ratios (CD8+/CD4+),Pan CD3+ T cells [2]; [5],1.48 and 2.23 and 2.88
same,Fold Increase (Avg),"Pan CD3+ T cells [2]; 0.5 mM 2-DG, Day 10 vs Day 0",3.6
same,Fold Increase in CD8+ to CD4+ ratio,"Pan CD3+ T cells [2]; 0.5 mM 2-DG, Day 10 vs Day 0, single donors",3.29 and 2.85 and 3.7
same,% CD4+,"Pan CD3+ T cells [2]; 1 mM 2-DG, Day 10, Table 26",50%
same,% CD8+,"Pan CD3+ T cells [2]; 1 mM 2-DG, Day 10, Table 26",42%
same,% Ratios (CD8+/CD4+),"Pan CD3+ T cells [2]; 1 mM 2-DG, Day 10, Table 26",0.85
same,Fold Increase compared to Baseline,"Pan CD3+ T cells [2]; 1 mM 2-DG, Day 10 vs Day 0, Table 26",2.18
same,% CD4+,"Pan CD3+ T cells [2]; 2 mM 2-DG, Day 10, Table 26",42%
same,% CD8+,"Pan CD3+ T cells [2]; 2 mM 2-DG, Day 10, Table 26",50%
same,% Ratios (CD8+/CD4+),"Pan CD3+ T cells [2]; 2 mM 2-DG, Day 10, Table 26",1.18
same,Fold Increase compared to Baseline,"Pan CD3+ T cells [2]; 2 mM 2-DG, Day 10 vs Day 0, Table 26",3.01
same,Fold Increase in CD8+ to CD4+ ratio,"Pan CD3+ T cells [2]; 4 mM 2-DG, 10 days",4.1 fold
same,% CD4+,"Pan CD3+ T cells [2]; 4 mM 2-DG, Day 10, Table 26",23%
same,% CD8+,"Pan CD3+ T cells [2]; 4 mM 2-DG, Day 10, Table 26",63%
same,% Ratios (CD8+/CD4+),"Pan CD3+ T cells [2]; 4 mM 2-DG, Day 10, Table 26",2.80
same,Fold Increase compared to Baseline,"Pan CD3+ T cells [2]; 4 mM 2-DG, Day 10 vs Day 0, Table 26",7.15
same,CD8+ T cell population (frequency),Pan CD3+ T cells [2]; 4 mM 2-DG,63%
